Results taken from US11465986B2, “Crystal form of c-MET inhibitor and salt form thereof and preparation method therefor” (FUJIAN AKEYLINK BIOTECHNOLOGY CO., LTD., priority 2018, dated 2022).
Several values for one entry are separate records, joined by “and”; a condition that tells them apart may be missing. Identical values can stand only once. Entries after “also recorded” stand apart in the source; their conditions may differ.

How the values were obtained:
MHCC97-H cells [1] = conditions: read-out: IC50 on MHCC97-H cells; background section; cited from earlier work
[2] = test system: human liver cancer MHCC97H cell xenograft tumor; assay: In vivo efficacy, MHCC97H subcutaneous xenograft tumor model; design: species or system BALB/c nude mice; conditions: for tumor volume (24th day): 24th day after administration, average value±SEM; for T/C / TGI: based on the tumor volume on the 24th day after administration
Description: MHCC97H cells were cultured in a single layer in-vitro. The culturing condition was RPMI1640 medium supplemented with 10% heat-inactivated fetal bovine serum, 1% penicillin-streptomycin double antibody under 37° C., 5% carbon dioxide. Digestion and passage treatment with trypsin-EDTA was done twice a week. When the cells were in the exponential growing phase, the cells were collected, counted and inoculated.
BALB/c nude mice, male. 6-8 weeks old, weighting 18-22 g.
0.2 mL of a cell suspension containing 5×10^6 MHCC97H was subcutaneously inoculated into the right back of each mouse. Drugs were administered by group after the average tumor volume reached approximately 172 mm^3.
Investigation of whether the tumor growth was inhibited, delayed or cured. The diameters of the tumor were measured twice a week using a vernier caliper. The formula for calculating the tumor volume is V=0.5a×b^2, and a and b represent the long and short diameters of the tumor respectively. The antitumor effect (TGI) of the compound was evaluated by T-C (days) and TIC (%).
Remark: a. average value±SEM; b. p value was calculated based on the tumor volume.

[3] = Liver microsome metabolism, human; assay type: in vitro ADME
[4] = Liver microsome metabolism, rat; assay type: in vitro ADME
[5] = Liver microsome metabolism, mouse; assay type: in vitro ADME
MHCC97-H cells [6] = test system: MHCC97-H cells
Description: The cell plates were incubated in a carbon dioxide incubator for 3 days.

[7] = Stability test of the crystal forms (HPLC impurity content); assay type: physicochemical; conditions: form A, 5 days
[8] = Hygroscopicity study (weight gain over saturated ammonium chloride solution, 25° C., 24 hours); assay type: physicochemical
Description: The hygroscopicity was evaluated using the scales in the following Table 4:
3 dry glass weighing bottles with stopper (outer diameter of 50 mm, height of 30 mm) were placed in a desiccator having saturated ammonium chloride solution placed at the bottom, the weighing bottles were left open, and the desiccator was covered with lid, placed in a thermostat setting at 25° C. overnight.
The weighing bottles were took out and accurately weighed, the weight data were noted as m11, m12 and m13 respectively.
An appropriate amount of the crystal form A of the compound represented by formula (I), was spread in the weighed weighing bottles (the thickness of the sample was about 1 mm), and then accurately weighed, the weight data were noted as m21, m22 and m23, respectively.
The open weighing bottles and the bottle stoppers were placed in a desiccator having saturated ammonium chloride solution placed at the bottom, and the desiccator was covered with a lid, placed in a thermostat setting at 25° C. for 24 hours.
After standing for 24 hours, the weighing bottles were closed with the stoppers, then accurately weighed, and the weight data were noted as m31, m32 and m33.
Hygroscopicity weight gain was calculated, the calculation formula was as follows: Percentage gain=100%×(m3−m2)/(m2−m1)

[9] = Solubility test in different solvents; assay type: physicochemical; conditions: 25° C.±2° C.
Description: (§1) 10 mg of the crystal form A of the compound represented by formula (I) was placed into a glass bottle, 1 mL of solvent was added thereto and the bottle was shaken vigorously for 30 seconds every 5 minutes at 25° C.±2° C., the dissolution was observed over 30 minutes. The corresponding data were recorded in the table.
as §1, with “For insoluble samples, another 1” for “10”, “an appropriate” for “1 mL of”, “thereto,” for “thereto”, “Table 10.” for “the table.”

[10] = Stability test of the crystal forms (HPLC impurity content); assay type: physicochemical; conditions: for Impurity content, relative retention time 0.93 / Impurity content, relative retention time 1.07 / Total impurities / Impurity content, relative retention time 0.99 / Impurity content, relative retention time 1.39 / Impurity content, relative retention time 1.48 / Impurity content, relative retention time 1.05 / Impurity content, relative retention time 1.43: form A
Description: The method for High Performance Liquid Chromatograph (HPLC) in the present disclosure
Instrument Model: Agilent 1200 High Performance Liquid Chromatograph
The analysis method is as follows: […]
About 10 mg of the crystal form B of the compound represented by formula (II) was weighted and placed under stability test conditions, and the samples were collected and analyzed after 5 days, 10 days, and 1 month.
About 10 mg of the crystal form C of the compound represented by formula (III) was weighted and placed under stability test conditions, and the samples were collected and analyzed after 5 days, 10 days, and 1 month respectively.

[11] = liver microsomes, read-out: t1/2 by liver microsome metabolism
[12] = 40° C. Relative humidity 75%, 1 month
[13] = 40° C. Relative humidity 75%, 2 months
[14] = 40° C. Relative humidity 75%, 10 days
[15] = 60° C. Relative humidity 75%, 1 month
[16] = 60° C. Relative humidity 75%, 2 months
[17] = 60° C. Relative humidity 75%, 10 days
[18] = Light (total illuminance = 1.2 × 106 Lux · hr/near ultraviolet = 200 w · hr/m^2)
[19] = Relative humidity 92.5%, 5 days
[20] = Relative humidity 92.5%, 10 days

CN1CCC(COc2cnc(-c3cccc(Cn4nc(-c5cccc(C#N)c5)ccc4=O)c3)nc2)CC1 [Tepotinib, reference compound]
IC50 (MHCC97-H cells [1]): 6.2 nM
tumor volume (24th day) [2]: 255 ± 5 mm^3
T/C [2]: 12.4%
TGI [2]: 95.6%
half-life [3, 11]: 48.3 min
half-life [4, 11]: 10.5 min
half-life [5, 11]: 12.4 min

C[C@H](c1cccc(-c2ncc(OCC3CCN(C)CC3)cn2)c1)n1cc(-c2cc(C#N)ccn2)cc(F)c1=O [compound represented by formula (I)]
tumor volume (24th day) [2]: 153 ± 12 mm^3
Tumor inhibitory effect compared with tepotinib, in words ([2]; MHCC97H liver cancer cell subcutaneous xenograft tumor model): better tumor inhibitory effect than tepotinib
T/C [2]: 7.4%
TGI [2]: 101.0%
t1/2 by liver microsome metabolism [3]: 62.1 min
Inhibitory activity on MHCC97H cell, in words (MHCC97-H cells [6]): good inhibitory activity
t1/2 by liver microsome metabolism [4]: 36.5 min
t1/2 by liver microsome metabolism [5]: 49.1 min

C[C@H](c1cccc(-c2ncc(OCC3CCN(C)CC3)cn2)c1)n1cc(-c2cc(C#N)ccn2)cc(F)c1=O [crystal form A of the compound represented by formula (I)]
Total impurities ([7]; 60° C.): 0.99%
Impurity content, relative retention time 1.07 ([7]; Relative humidity 92.5%): 0.53%
Average value of percentage gain (average hygroscopicity) ([8]; 25° C., 24 hours over saturated ammonium chloride solution, mean of 3 samples): 0.060%
Percentage gain (hygroscopic weight gain), single samples ([8]; 25° C., 24 hours over saturated ammonium chloride solution, samples No. 1-3): 0.03% and 0.08% and 0.07%
Hygroscopicity scale ([8]; classified by the average weight gain): no or almost no hygroscopicity
Solubility classification ([9]; 0.1N HCl): Soluble
Solubility classification ([9]; 0.1N NaOH): practically insoluble or insoluble; also recorded: Practically insoluble
Solubility classification ([9]; Acetonitrile): Very slightly soluble
Solubility classification ([9]; Diethylamine): practically insoluble or insoluble; also recorded: Practically insoluble
Solubility classification ([9]; Ethanol): very slightly soluble
Solubility classification ([9]; Ethyl acetate): Very slightly soluble
Solubility classification ([9]; N-Methylpyrrolidone): Very soluble
Solubility classification ([9]; Tetrahydrofuran): Sparingly soluble
Solubility classification ([9]; Trifluoroacetic acid): Sparingly soluble
Solubility classification ([9]; acetone): Slightly soluble
Solubility classification ([9]; n-Hexane): practically insoluble or insoluble; also recorded: Practically insoluble
Solubility classification ([9]; water): Very soluble
Impurity content, relative retention time 0.93 ([10]; 0 day): 0.14%
Impurity content, relative retention time 1.07 ([10]; 0 day): 0.52%
Total impurities ([10]; 0 day): 0.67%
Impurity content, relative retention time 0.93 [10, 12]: 0.12%
Impurity content, relative retention time 1.07 [10, 12]: 0.45%
Total impurities [10, 12]: 0.63%
Impurity content, relative retention time 0.93 [10, 13]: 0.15%
Impurity content, relative retention time 1.07 [10, 13]: 0.52%
Total impurities [10, 13]: 0.66%
Impurity content, relative retention time 0.93 [10, 14]: 0.14%
Impurity content, relative retention time 1.07 [10, 14]: 0.5%
Total impurities [10, 14]: 0.58%
Impurity content, relative retention time 0.93 [10, 15]: 0.13%
Impurity content, relative retention time 1.07 [10, 15]: 0.49%
Total impurities [10, 15]: 0.62%
Impurity content, relative retention time 0.93 [10, 16]: 0.17%
Impurity content, relative retention time 1.07 [10, 16]: 0.59%
Total impurities [10, 16]: 0.75%
Impurity content, relative retention time 0.93 [10, 17]: 0.14%
Impurity content, relative retention time 1.07 [10, 17]: 0.53%
Total impurities [10, 17]: 0.67%
Impurity content, relative retention time 0.93 ([10]; 60° C., 5 days): 0.12%
Impurity content, relative retention time 0.99 ([10]; 60° C., 5 days): 0.13%
Impurity content, relative retention time 1.07 ([10]; 60° C., 5 days): 0.47%
Impurity content, relative retention time 1.39 ([10]; 60° C., 5 days): 0.17%
Impurity content, relative retention time 1.48 ([10]; 60° C., 5 days): 0.1%
Impurity content, relative retention time 0.93 ([10]; 60° C., 10 days): 0.12%
Impurity content, relative retention time 0.99 ([10]; 60° C., 10 days): 0.19%
Impurity content, relative retention time 1.05 ([10]; 60° C., 10 days): 0.14%
Impurity content, relative retention time 1.07 ([10]; 60° C., 10 days): 0.45%
Impurity content, relative retention time 1.39 ([10]; 60° C., 10 days): 0.41%
Impurity content, relative retention time 1.43 ([10]; 60° C., 10 days): 0.11%
Impurity content, relative retention time 1.48 ([10]; 60° C., 10 days): 0.23%
Total impurities ([10]; 60° C., 10 days): 1.64%
Impurity content, relative retention time 0.93 [10, 18]: 0.11%
Impurity content, relative retention time 0.99 [10, 18]: 0.29%
Impurity content, relative retention time 1.05 [10, 18]: 0.8%
Impurity content, relative retention time 1.07 [10, 18]: 0.46%
Impurity content, relative retention time 1.39 [10, 18]: 3.98%
Impurity content, relative retention time 1.43 [10, 18]: 1.18%
Impurity content, relative retention time 1.48 [10, 18]: 1.62%
Total impurities [10, 18]: 13.45%
Impurity content, relative retention time 0.93 [10, 19]: 0.14%
Total impurities [10, 19]: 0.67%
Impurity content, relative retention time 0.93 [10, 20]: 0.14%
Impurity content, relative retention time 1.07 [10, 20]: 0.52%
Total impurities [10, 20]: 0.67%
Stability, conclusion in words ([10]; stress conditions (high temperature, high humidity, light)): good stability
